Assay results: article PMC2391111 (British Journal of Cancer, 2008)
“Also recorded” adds a separate entry of the source. Where two headings read alike, the source gives them in different places. Values belong to the molecule of their own block, whether it stands above or below them.

Columns and labels:
[1] = tested on: HER2-positive breast cancer cell lines; design: method as in Cardoso et al, 2006; details: HER2-positive cells, four cell lines ref Cardoso et al, 2006; cited from earlier work
[2] = Plasma pharmacokinetics of bortezomib and docetaxel given in combination; type: in vivo, patients; details: for AUC(0-t) / AUC(0-inf) / clearance / half-life / Vd / Cmax: human, plasma, intravenous; for AUC(0-t): read-out: AUC0–t, mean (%CV); for AUC(0-inf): read-out: AUC0–∞∞, mean (%CV); for clearance: read-out: CL, mean (%CV) (converted); for Cmax: read-out: Cmax, mean (%CV)
From the text: In patients participating in pharmacokinetic analysis, blood samples were taken on day 1, cycle 1, to determine the plasma concentration time profile of docetaxel and bortezomib. Samples were collected immediately before docetaxel infusion and bortezomib injection and at prespecified intervals on day 1. Samples were also taken for bortezomib pharmacokinetic analysis on day 11 of cycle 1. Whole-blood samples were taken for pharmacodynamic analysis using 20S proteasome inhibition assay ([Lightcap et al, 2000]) immediately before and 1 h after bortezomib dosing on days 1 and 11 of cycles 1 and 2, and on days 2 and 12 of cycle 1, in a subset of patients participating in pharmacokinetic analysis.

20S proteasome = 20S proteasome (Homo sapiens, UniProt P28074); assay: 20S proteasome inhibition assay in whole blood; type: in vivo, patients
Sequence of 20S proteasome (P28074 60-263): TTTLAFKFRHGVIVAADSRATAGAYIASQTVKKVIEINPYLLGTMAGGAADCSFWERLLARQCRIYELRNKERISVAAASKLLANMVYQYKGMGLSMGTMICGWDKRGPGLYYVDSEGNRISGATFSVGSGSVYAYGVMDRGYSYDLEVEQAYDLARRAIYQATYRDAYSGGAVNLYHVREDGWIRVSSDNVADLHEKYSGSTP

[3] = tested on: alpha-1 acid glycoprotein (AAG), albumin, and lipoproteins; design: method as in Aventis Pharmaceuticals Inc, 2005; details: in vitro ref Aventis Pharmaceuticals Inc, 2005; cited from earlier work
metastatic breast cancer = details: single agent, anthracycline-pretreated metastatic breast cancer ref Jones et al, 2005; cited from earlier work
[4] = 1 mg, bortezomib 1.0 mg m^−2 (n=5), day 1, with docetaxel
[5] = 1 mg, bortezomib 1.0 mg m^−2 (n=5), day 11
[6] = 1.3 mg, bortezomib 1.3 mg m^−2 (n=3), day 1, with docetaxel
[7] = 1.3 mg, bortezomib 1.3 mg m^−2 (n=3), day 11
[8] = 1.5 mg, bortezomib 1.5 mg m^−2 (n=6), day 11
[9] = 1.5 mg, bortezomib 1.5 mg m^−2 (n=8), day 1, with docetaxel
[10] = 75 mg, docetaxel 75 mg m^−2 (n=7), day 1, with bortezomib
[11] = 100 mg, docetaxel 100 mg m^−2 (n=6), day 1, with bortezomib

- C0, mean (%CV) ([2]; bortezomib 1.0 mg m^−2 (n=5), day 1, with docetaxel): 208 (34) ng ml^−1
- C0, mean (%CV) ([2]; bortezomib 1.0 mg m^−2 (n=5), day 11): 552 (148) ng ml^−1
- C0, mean (%CV) ([2]; bortezomib 1.3 mg m^−2 (n=3), day 1, with docetaxel): 137 (54) ng ml^−1
- C0, mean (%CV) ([2]; bortezomib 1.3 mg m^−2 (n=3), day 11): 237 (59) ng ml^−1
- C0, mean (%CV) ([2]; bortezomib 1.5 mg m^−2 (n=6), day 11): 153 (41) ng ml^−1
- C0, mean (%CV) ([2]; bortezomib 1.5 mg m^−2 (n=8), day 1, with docetaxel): 268 (71) ng ml^−1
- AUC(0-t) [2, 4]: 43 ng·h/mL
- AUC(0-inf) [2, 4]: 54.6 ng·h/mL
- clearance [2, 4]: 562 mL/min
- half-life ([2]; 1 mg, bortezomib 1.0 mg m^−2 (n=5), day 1, with docetaxel, read-out: T½,z, mean (%CV) (converted)): 9.15 h
- Vd ([2]; 1 mg, bortezomib 1.0 mg m^−2 (n=5), day 1, with docetaxel, read-out: Vss, mean (%CV)): 222 L
- Vd ([2]; 1 mg, bortezomib 1.0 mg m^−2 (n=5), day 1, with docetaxel, read-out: Vz, mean (%CV)): 408 L
- AUC(0-t) [2, 5]: 112 ng·h/mL
- AUC(0-inf) [2, 5]: 133 ng·h/mL
- clearance [2, 5]: 225 mL/min
- half-life ([2]; 1 mg, bortezomib 1.0 mg m^−2 (n=5), day 11, read-out: T½,z, mean (%CV) (converted)): 12.2 h
- Vd ([2]; 1 mg, bortezomib 1.0 mg m^−2 (n=5), day 11, read-out: Vss, mean (%CV)): 151 L
- Vd ([2]; 1 mg, bortezomib 1.0 mg m^−2 (n=5), day 11, read-out: Vz, mean (%CV)): 237 L
- half-life ([2]; 1 mg, bortezomib 1.0 mg m^−2, day 1, patients with measurable plasma concentrations at 24 h post-dose (n=2), read-out: T½,z 24-h, mean (converted)): 15.1 h
- half-life ([2]; 1 mg, bortezomib 1.0 mg m^−2, day 11, patients with measurable plasma concentrations at 24 h post-dose (n=4), read-out: T½,z 24-h, mean (converted)): 14.3 h
- AUC(0-t) [2, 6]: 35.5 ng·h/mL
- AUC(0-inf) [2, 6]: 49 ng·h/mL
- clearance [2, 6]: 850 mL/min
- half-life ([2]; 1.3 mg, bortezomib 1.3 mg m^−2 (n=3), day 1, with docetaxel, read-out: T½,z, mean (%CV) (converted)): 14.2 h
- Vd ([2]; 1.3 mg, bortezomib 1.3 mg m^−2 (n=3), day 1, with docetaxel, read-out: Vss, mean (%CV)): 596 L
- Vd ([2]; 1.3 mg, bortezomib 1.3 mg m^−2 (n=3), day 1, with docetaxel, read-out: Vz, mean (%CV)): 924 L
- AUC(0-t) [2, 7]: 90.5 ng·h/mL
- AUC(0-inf) [2, 7]: 111 ng·h/mL
- clearance [2, 7]: 350 mL/min
- half-life ([2]; 1.3 mg, bortezomib 1.3 mg m^−2 (n=3), day 11, read-out: T½,z, mean (%CV) (converted)): 12.2 h
- Vd ([2]; 1.3 mg, bortezomib 1.3 mg m^−2 (n=3), day 11, read-out: Vss, mean (%CV)): 237 L
- Vd ([2]; 1.3 mg, bortezomib 1.3 mg m^−2 (n=3), day 11, read-out: Vz, mean (%CV)): 374 L
- half-life ([2]; 1.3 mg, bortezomib 1.3 mg m^−2, day 1, patients with measurable plasma concentrations at 24 h post-dose (n=2), read-out: T½,z 24-h, mean (converted)): 18.1 h
- half-life ([2]; 1.3 mg, bortezomib 1.3 mg m^−2, day 11, patients with measurable plasma concentrations at 24 h post-dose (n=2), read-out: T½,z 24-h, mean (converted)): 17.1 h
- AUC(0-t) [2, 8]: 103 ng·h/mL
- AUC(0-inf) [2, 8]: 161 ng·h/mL
- clearance [2, 8]: 267 mL/min
- half-life ([2]; 1.5 mg, bortezomib 1.5 mg m^−2 (n=6), day 11, read-out: T½,z, mean (%CV) (converted)): 23.6 h
- Vd ([2]; 1.5 mg, bortezomib 1.5 mg m^−2 (n=6), day 11, read-out: Vss, mean (%CV)): 391 L
- Vd ([2]; 1.5 mg, bortezomib 1.5 mg m^−2 (n=6), day 11, read-out: Vz, mean (%CV)): 538 L
- AUC(0-t) [2, 9]: 69 ng·h/mL
- AUC(0-inf) [2, 9]: 85.3 ng·h/mL
- clearance [2, 9]: 615 mL/min
- half-life ([2]; 1.5 mg, bortezomib 1.5 mg m^−2 (n=8), day 1, with docetaxel, read-out: T½,z, mean (%CV) (converted)): 6.9 h
- Vd ([2]; 1.5 mg, bortezomib 1.5 mg m^−2 (n=8), day 1, with docetaxel, read-out: Vss, mean (%CV)): 209 L
- Vd ([2]; 1.5 mg, bortezomib 1.5 mg m^−2 (n=8), day 1, with docetaxel, read-out: Vz, mean (%CV)): 282 L
- half-life ([2]; 1.5 mg, bortezomib 1.5 mg m^−2, day 1, patients with measurable plasma concentrations at 24 h post-dose (n=2), read-out: T½,z 24-h, mean (converted)): 17.8 h
- half-life ([2]; 1.5 mg, bortezomib 1.5 mg m^−2, day 11, patients with measurable plasma concentrations at 24 h post-dose, read-out: T½,z 24-h, mean (converted)): 23.6 h
- half-life ([2]; following the first dose, patients with measurable plasma concentrations at 24 h post-dose, read-out: Terminal half-lives, mean values across dose levels): 15 to 18 h
- Percent 20S proteasome inhibition, cycle 2 versus cycle 1 (20S proteasome; all dose groups): greater in cycle 2 than cycle 1
- Inhibition of 20S proteasome activity (20S proteasome; whole blood, 1 h post-dose): 46.14–88.80%
- Inhibition of 20S proteasome activity (20S proteasome; whole blood, immediately prior to the dose on day 11): 10.93–51.18%
SMILES: CC(C)C[C@H](NC(=O)[C@H](Cc1ccccc1)NC(=O)c1cnccn1)B(O)O [Bortezomib]
- Effect on the effect of trastuzumab [1]: acts synergistically

- AUC(0-t) [2, 10]: 1700 ng·h/mL
- AUC(0-inf) [2, 10]: 1850 ng·h/mL
- clearance [2, 10]: 1420 mL/min
- half-life ([2]; 75 mg, docetaxel 75 mg m^−2 (n=7), day 1, with bortezomib, read-out: T½,z, mean (%CV) (converted)): 10.4 h
- Vd ([2]; 75 mg, docetaxel 75 mg m^−2 (n=7), day 1, with bortezomib, read-out: Vss, mean (%CV)): 180 L
- Vd ([2]; 75 mg, docetaxel 75 mg m^−2 (n=7), day 1, with bortezomib, read-out: Vz, mean (%CV)): 920 L
- half-life ([2]; 75 mg, docetaxel 75 mg m^−2, day 1, patients with measurable plasma concentrations at 24 h post-dose (n=3), read-out: T½,z 24-h, mean (converted)): 17.6 h
- AUC(0-t) [2, 11]: 2550 ng·h/mL
- AUC(0-inf) [2, 11]: 2730 ng·h/mL
- clearance [2, 11]: 1160 mL/min
- half-life ([2]; 100 mg, docetaxel 100 mg m^−2 (n=6), day 1, with bortezomib, read-out: T½,z, mean (%CV) (converted)): 15 h
- Vd ([2]; 100 mg, docetaxel 100 mg m^−2 (n=6), day 1, with bortezomib, read-out: Vss, mean (%CV)): 372 L
- Vd ([2]; 100 mg, docetaxel 100 mg m^−2 (n=6), day 1, with bortezomib, read-out: Vz, mean (%CV)): 1510 L
- half-life ([2]; 100 mg, docetaxel 100 mg m^−2, day 1, patients with measurable plasma concentrations at 24 h post-dose (n=5), read-out: T½,z 24-h, mean (converted)): 17.4 h
- Cmax ([2]; docetaxel 75 mg m^−2 (n=7), day 1, with bortezomib): 1620 ng/mL
- Cmax ([2]; docetaxel 100 mg m^−2 (n=6), day 1, with bortezomib): 2520 ng/mL
SMILES: CC(=O)O[C@@]12CO[C@@H]1C[C@H](O)[C@@]1(C)C(=O)[C@H](O)C3=C(C)[C@@H](OC(=O)[C@H](O)[C@@H](NC(=O)OC(C)(C)C)c4ccccc4)C[C@@](O)([C@@H](OC(=O)c4ccccc4)[C@H]21)C3(C)C [Docetaxel]
- Plasma protein binding [3]: extensively plasma protein-bound
- Effect of coadministered docetaxel on 20S proteasome inhibition by bortezomib (20S proteasome; whole blood): appeared not to affect; also recorded: did not appear to affect
- Median TTP (metastatic breast cancer): 5.7 months
- Response rate (metastatic breast cancer): 32%

SMILES: CC(=O)O[C@H]1C(=O)[C@@]2(C)[C@H]([C@H](OC(=O)c3ccccc3)[C@]3(O)C[C@H](OC(=O)[C@H](O)[C@@H](NC(=O)c4ccccc4)c4ccccc4)C(C)=C1C3(C)C)[C@]1(OC(C)=O)CO[C@@H]1C[C@@H]2O [paclitaxel]
- Median TTP (metastatic breast cancer): 3.6 months
- Response rate (metastatic breast cancer): 25%
